The results in this text go back to patent publication US20060116400A1, “Oxazolidinone and/or isoxazoline derivatives as antibacterial agents” (AstraZeneca AB, priority 2002, published 2006).

Structures are written as SMILES.

Tested on in the first data set: not given
Assay: not given
Conditions: not given
By melting point is commonly meant the temperature of the solid-liquid transition. `O=C1O[C@@H](Cn2ccnn2)CN1c1ccc(-c2ccc(C3=NOC(C(O)c4ccccc4)C3)nc2)c(F)c1` (single isomer, unassigned) [Example 26] returned a melting point of 182 °C. The same measure, in the same setting: then `CC(C)C(OC(=O)Cc1ccc2ccccc2c1)C1CC(c2ccc(-c3ccc(N4C[C@H](Cn5ccnn5)OC4=O)cc3F)cn2)=NO1` (single isomer, unassigned) [Example 30], with 85 °C; and `CC(C)C(O)C1CC(c2ccc(-c3ccc(N4C[C@H](Cn5ccnn5)OC4=O)cc3F)cn2)=NO1` (single isomer, unassigned) [Example 32], with 155 °C. On the same count and under the same terms, then `CC(C)(O)C1CC(c2ccc(-c3ccc(N4C[C@H](Cn5ccnn5)OC4=O)cc3F)cn2)=NO1` (stereo partly drawn) [Example 15, (5R)-3-(3-Fluoro-4-{6-[5-(1-hydroxy-1-methylethyl)-4,5-dihydroisoxazol-3-yl]pyridin-3-yl}phenyl)-5-(1H-1,2,3-triazol-1-ylmethyl)-1,3-oxazolidin-2-one], with 197 °C. Regarding `CC(C)(C)OC(=O)C1CC(c2ccc(-c3ccc(N4C[C@H](Cn5ccnn5)OC4=O)cc3F)cn2)=NO1` (stereo partly shown) [Example 21], the melting point was in the range of 165 to 168 °C. As for `O=C(O)C1CC(c2ccc(-c3ccc(N4C[C@H](Cn5ccnn5)OC4=O)cc3F)cn2)=NO1` (stereo partly drawn) [Example 22, 3-(5-{2-Fluoro-4-[(5R)-2-oxo-5-(1H-1,2,3-triazol-1-ylmethyl)-1,3-oxazolidin-3-yl]phenyl}pyridin-2-yl)-4,5-dihydroisoxazole-5-carboxylic acid], the melting point fell in the range of 190 to 194 °C. Regarding `CN(C)C(=O)C1CC(c2ccc(-c3ccc(N4C[C@H](Cn5ccnn5)OC4=O)cc3F)cn2)=NO1` (stereo partly drawn) [Example 23, 3-(5-{2-Fluoro-4-[(5R)-2-oxo-5-(1H-1,2,3-triazol-1-ylmethyl)-1,3-oxazolidin-3-yl]phenyl}pyridin-2-yl)-N,N-dimethyl-4,5-dihydroisoxazole-5-carboxamide], the melting point fell in the range of 180 to 190 °C. Same read-out and setting: then `CNC(=O)C1CC(c2ccc(-c3ccc(N4C[C@H](Cn5ccnn5)OC4=O)cc3F)cn2)=NO1` (stereo partly drawn) [Example 24, 3-(5-{2-Fluoro-4-[(5R)-2-oxo-5-(1H-1,2,3-triazol-1-ylmethyl)-1,3-oxazolidin-3-yl]phenyl}pyridin-2-yl)-N-methyl-4,5-dihydroisoxazole-5-carboxamide], with 185 to 195 °C. On the same count and under the same terms, with `O=C1O[C@@H](Cn2ccnn2)CN1c1ccc(-c2ccc(C3=NOC(CS(=O)(=O)CCO)C3)nc2)c(F)c1` (stereo partly drawn) [Example 25, (5R)-3-{3-Fluoro-4-[6-(5-{[(2-hydroxyethyl)sulfonyl]methyl}-4,5-dihydroisoxazol-3-yl)pyridin-3-yl]phenyl}-5-(1H-1,2,3-triazol-1-ylmethyl)-1,3-oxazolidin-2-one] the figure was 210 °C; with `O=C1O[C@@H](Cn2ccnn2)CN1c1ccc(-c2ccc(C3=NOC(C4(O)CCCC4)C3)nc2)c(F)c1` (stereo partly drawn) [Example 28, (5R)-3-(3-Fluoro-4-{6-[5-(1-hydroxycyclopentyl)-4,5-dihydroisoxazol-3-yl]pyridin-3-yl}phenyl)-5-(1H-1,2,3-triazol-1-ylmethyl)-1,3-oxazolidin-2-one], 225 °C; with `O=C1O[C@@H](Cn2ccnn2)CN1c1ccc(-c2ccc(C3=NOC(CNCCc4ccncc4)C3)nc2)c(F)c1` (stereo partly drawn) [Example 33, (5R)-3-{3-Fluoro-4-[6-(5-{[(2-pyridin-4-ylethyl)amino]methyl}-4,5-dihydroisoxazol-3-yl)pyridin-3-yl]phenyl}-5-(1H-1,2,3-triazol-1-ylmethyl)-1,3-oxazolidin-2-one], 181 °C. Regarding `CN1CCC(O)(C2CC(c3ccc(-c4ccc(N5C[C@H](Cn6ccnn6)OC5=O)cc4F)cn3)=NO2)CC1` (stereo partly drawn) [Example 34, (5R)-3-(3-Fluoro-4-{6-[5-(4-hydroxy-1-methylpiperidin-4-yl)-4,5-dihydroisoxazol-3-yl]pyridin-3-yl}phenyl)-5-(1H-1,2,3-triazol-1-ylmethyl)-1,3-oxazolidin-2-one], the melting point turned out to be 73 °C.

On to `O=C1O[C@@H](Cn2ccnn2)CN1c1ccc(-c2ccc(C3=NOC(CS(=O)(=O)CCc4ccncc4)C3)nc2)c(F)c1` (stereo partly drawn) [Example 35, (5R)-3-{3-Fluoro-4-[6-(5-{[(2-pyridin-4-ylethyl)sulfonyl]methyl}-4,5-dihydroisoxazol-3-yl)pyridin-3-yl]phenyl}-5-(1H-1,2,3-triazol-1-ylmethyl)-1,3-oxazolidin-2-one], for which the melting point came out at 195 °C. On the same count and under the same terms, with `CCN(CC)CCC(=O)OC[C@@H]1CC(c2ccc(-c3ccc(N4C[C@H](Cn5ccnn5)OC4=O)cc3F)cn2)=NO1` [Example 43, [(5S)-3-(5-{2-Fluoro-4-[(5R)-2-oxo-5-(1H-1,2,3-triazol-1-ylmethyl)-1,3-oxazolidin-3-yl]phenyl}pyridin-2-yl)-4,5-dihydroisoxazol-5-yl]methyl N,N-diethyl-β-alaninate] the figure was 167 °C; with `COCCC(=O)OC[C@@H](O)[C@@H]1CC(c2ccc(-c3ccc(N4C[C@H](Cn5ccnn5)OC4=O)cc3F)cn2)=NO1` [Example 56, (2R)-2-[(5S)-3-(5-{2-Fluoro-4-[(5R)-2-oxo-5-(1H-1,2,3-triazol-1-ylmethyl)-1,3-oxazolidin-3-yl]phenyl}pyridin-2-yl)-4,5-dihydroisoxazol-5-yl]-2-hydroxyethyl 3-methoxypropanoate], 130 °C. Still for that read-out and setting: with `O=C(OC[C@@H](O)[C@@H]1CC(c2ccc(-c3ccc(N4C[C@H](Cn5ccnn5)OC4=O)cc3F)cn2)=NO1)c1cccnc1` [Example 57, (2R)-2-[(5S)-3-(5-{2-Fluoro-4-[(5R)-2-oxo-5-(1H-1,2,3-triazol-1-ylmethyl)-1,3-oxazolidin-3-yl]phenyl}pyridin-2-yl)-4,5-dihydroisoxazol-5-yl]-2-hydroxyethyl nicotinate] the figure was 210 °C; with `COCCOC(=O)OC[C@@H](O)[C@@H]1CC(c2ccc(-c3ccc(N4C[C@H](Cn5ccnn5)OC4=O)cc3F)cn2)=NO1` [Example 58, (2R)-2-[(5S)-3-(5-{2-Fluoro-4-[(5R)-2-oxo-5-(1H-1,2,3-triazol-1-ylmethyl)-1,3-oxazolidin-3-yl]phenyl}pyridin-2-yl)-4,5-dihydroisoxazol-5-yl]-2-hydroxyethyl 2-methoxyethyl carbonate], 125 °C; with `N.N.N.N.O=C1O[C@@H](Cn2ccnn2)CN1c1ccc(-c2ccc(C3=NO[C@H]([C@@H](COP(=O)(O)O)OP(=O)(O)O)C3)nc2)c(F)c1` [Example 59, Phosphoric acid mono-(1R)-[(5R)-2-(3-{(5S)-[2-fluoro-4-(2-oxo-5-[1,2,3]triazol-1-ylmethyl-oxazolidin-3-yl)-phenyl]-pyridin-2-yl}-4,5-dihydro-isoxazol-5-yl)-2-phosphonooxy-ethyl]ester, tetrakis ammonium salt], 175 to 180 °C (dec.). On the same count and under the same terms, with `O=C1O[C@@H](Cn2ccnn2)CN1c1ccc(-c2ccc(C3=NO[C@H](CSCCO)C3)nc2)c(F)c1` [Example 60, (5R)-3-{3-Fluoro-4-[6-((5S)-5-{[(2-hydroxyethyl)thio]methyl}-4,5-dihydroisoxazol-3-yl)pyridin-3-yl]phenyl}-5-(1H-1,2,3-triazol-1-ylmethyl)-1,3-oxazolidin-2-one] the figure was 162 °C; with `O=C1O[C@@H](Cn2ccnn2)CN1c1ccc(-c2ccc(C3=NO[C@H](COC(F)(F)F)C3)nc2)c(F)c1` [Example 61], 185 °C. In turn, `O=C1O[C@@H](Cn2ccnn2)CN1c1ccc(-c2ccc(C3=NO[C@H](COCC(F)(F)F)C3)nc2)c(F)c1` [Example 62] had a melting point of 199 °C.

In the case of `COC[C@@H]1CC(c2ccc(-c3ccc(N4C[C@H](Cn5ccnn5)OC4=O)cc3F)cn2)=NO1` [Example 64, (5R)-3-(3-Fluoro-4-{6-[(5S)-5-(methoxymethyl)-4,5-dihydroisoxazol-3-yl]pyridin-3-yl}phenyl)-5-(1H-1,2,3-triazol-1-ylmethyl)-1,3-oxazolidin-2-one], the melting point stood at 172 °C.

For another data set, the target named is T1, MAO-A (Homo sapiens, UniProt P21397).
T1 sequence (P21397 1-527): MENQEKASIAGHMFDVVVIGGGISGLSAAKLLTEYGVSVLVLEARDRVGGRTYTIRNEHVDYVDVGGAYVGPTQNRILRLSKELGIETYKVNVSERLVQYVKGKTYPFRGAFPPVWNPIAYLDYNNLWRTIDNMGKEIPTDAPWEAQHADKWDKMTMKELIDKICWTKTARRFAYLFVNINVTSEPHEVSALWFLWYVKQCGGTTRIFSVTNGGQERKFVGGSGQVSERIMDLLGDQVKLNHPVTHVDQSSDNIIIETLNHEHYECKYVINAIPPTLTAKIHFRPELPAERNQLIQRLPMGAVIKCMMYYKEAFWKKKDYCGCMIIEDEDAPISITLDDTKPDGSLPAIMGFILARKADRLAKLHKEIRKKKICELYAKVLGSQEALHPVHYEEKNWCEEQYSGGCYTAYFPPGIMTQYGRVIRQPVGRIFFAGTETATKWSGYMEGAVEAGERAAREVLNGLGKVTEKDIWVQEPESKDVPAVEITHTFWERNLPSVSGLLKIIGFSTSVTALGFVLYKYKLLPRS
Nature of the data set: MAO-A inhibition (Ki). The class given is biochemical. The conditions noted are these: * = approximate values.
As usually defined, the Ki is a measure of affinity in units of concentration, obtained from inhibition or displacement. A low value points to tighter binding. As to `O=C1O[C@@H](Cn2ccnn2)CN1c1ccc(-c2ccc(C3=NO[C@H]([C@H](O)CO)C3)nc2)c(F)c1` [Example 51, (5R)-3-[4-(6-{(5S)-5-[(1R)-1,2-Dihydroxyethyl]-4,5-dihydroisoxazol-3-yl}pyridin-3-yl)-3-fluorophenyl]-5-(1H-1,2,3-triazol-1-ylmethyl)-1,3-oxazolidin-2-one], the inhibitory constant (Ki) is approximately 60 µM. Same read-out and setting: then `O=C1O[C@@H](Cn2ccnn2)CN1c1ccc(-c2ccc(C3=NO[C@@H]([C@H](O)CO)C3)nc2)c(F)c1` [Example 52, (5R)-3-[4-(6-{(5R)-5-[(1R)-1,2-Dihydroxyethyl]-4,5-dihydroisoxazol-3-yl}pyridin-3-yl)-3-fluorophenyl]-5-(1H-1,2,3-triazol-ylmethyl)-1,3-oxazolidin-2-one], with approximately 35 µM. Same read-out and setting: with `O=C1O[C@@H](Cn2ccnn2)CN1c1ccc(-c2ccc(C3=NO[C@H]([C@@H](O)CO)C3)nc2)c(F)c1` [Example 53, (5R)-3-[4-(6-{(5S)-[(1S)-1,2-Dihydroxyethyl]-4,5-dihydroisoxazol-3-yl}pyridin-3-yl)-3-fluorophenyl]-5-(1H-1,2,3-triazol-1-ylmethyl)-1,3-oxazolidin-2-one] the figure was 60 µM.
